Results on 6 compounds are retold here after PubChem BioAssay AID1259407 (Chemical Carcinogenesis Research Information System (CCRIS), 2018).

The source made the active and inactive calls. No rule for the calls is given here.

The data set deals with CCRIS mutagenicity, Ames/micronucleus/aberration tests. In words: CCRIS mutagenicity studies.
Setting [1] is: Test System: AMES SALMONELLA TYPHIMURIUM, Strain/Indicator: TA98, Metabolic Activation: NONE, Method: PREINCUBATION
[2] abbreviates: Test System: AMES SALMONELLA TYPHIMURIUM, Strain/Indicator: TA100, Metabolic Activation: NONE, Method: PREINCUBATION
Where [3] appears, read: Test System: AMES SALMONELLA TYPHIMURIUM, Strain/Indicator: TA1535, Metabolic Activation: NONE, Method: PREINCUBATION
The mark [4] stands for this setting: Test System: AMES SALMONELLA TYPHIMURIUM, Strain/Indicator: TA100, Metabolic Activation: NONE, Method: STANDARD PLATE.

Regarding `CC/C=C/C#N`, the mutagenic call is, setting by setting: (Test System: AMES SALMONELLA TYPHIMURIUM, Strain/Indicator: TA97, Metabolic Activation: HAMSTER, LIVER, S-9, AROCLOR 1254 (10%), Method: PREINCUBATION) “inactive; negative”; (Test System: AMES SALMONELLA TYPHIMURIUM, Strain/Indicator: TA97, Metabolic Activation: HAMSTER, LIVER, S-9, AROCLOR 1254 (30%), Method: PREINCUBATION) “inactive; negative”; (Test System: AMES SALMONELLA TYPHIMURIUM, Strain/Indicator: TA97, Metabolic Activation: NONE, Method: PREINCUBATION) “inactive; negative”; (Test System: AMES SALMONELLA TYPHIMURIUM, Strain/Indicator: TA97, Metabolic Activation: RAT, LIVER, S-9, AROCLOR 1254 (10%), Method: PREINCUBATION) “inactive; negative”; (Test System: AMES SALMONELLA TYPHIMURIUM, Strain/Indicator: TA97, Metabolic Activation: RAT, LIVER, S-9, AROCLOR 1254 (30%), Method: PREINCUBATION) “inactive; negative”; (Test System: AMES SALMONELLA TYPHIMURIUM, Strain/Indicator: TA98, Metabolic Activation: HAMSTER, LIVER, S-9, AROCLOR 1254 (10%), Method: PREINCUBATION) “inactive; negative”. For the same compound, the mutagenic call is, setting by setting: (Test System: AMES SALMONELLA TYPHIMURIUM, Strain/Indicator: TA98, Metabolic Activation: HAMSTER, LIVER, S-9, AROCLOR 1254 (30%), Method: PREINCUBATION) “inactive; negative”; under setting [1], “inactive; negative”; (Test System: AMES SALMONELLA TYPHIMURIUM, Strain/Indicator: TA98, Metabolic Activation: RAT, LIVER, S-9, AROCLOR 1254 (10%), Method: PREINCUBATION) “inactive; negative”; (Test System: AMES SALMONELLA TYPHIMURIUM, Strain/Indicator: TA98, Metabolic Activation: RAT, LIVER, S-9, AROCLOR 1254 (30%), Method: PREINCUBATION) “inactive; negative”; (Test System: AMES SALMONELLA TYPHIMURIUM, Strain/Indicator: TA100, Metabolic Activation: HAMSTER, LIVER, S-9, AROCLOR 1254 (10%), Method: PREINCUBATION) “inactive; negative”; (Test System: AMES SALMONELLA TYPHIMURIUM, Strain/Indicator: TA100, Metabolic Activation: HAMSTER, LIVER, S-9, AROCLOR 1254 (30%), Method: PREINCUBATION) “inactive; negative”. The mutagenic call is, setting by setting: under setting [2], “inactive; negative”; (Test System: AMES SALMONELLA TYPHIMURIUM, Strain/Indicator: TA100, Metabolic Activation: RAT, LIVER, S-9, AROCLOR 1254 (10%), Method: PREINCUBATION) “inactive; negative”; (Test System: AMES SALMONELLA TYPHIMURIUM, Strain/Indicator: TA100, Metabolic Activation: RAT, LIVER, S-9, AROCLOR 1254 (30%), Method: PREINCUBATION) “inactive; negative”; (Test System: AMES SALMONELLA TYPHIMURIUM, Strain/Indicator: TA1535, Metabolic Activation: HAMSTER, LIVER, S-9, AROCLOR 1254 (10 OR 30%), Method: PREINCUBATION) “inactive; negative”; under setting [3], “inactive; negative”; (Test System: AMES SALMONELLA TYPHIMURIUM, Strain/Indicator: TA1535, Metabolic Activation: RAT, LIVER, S-9, AROCLOR 1254 (10%), Method: PREINCUBATION) “inactive; negative”. For the same compound, the mutagenic call reads like this: (Test System: AMES SALMONELLA TYPHIMURIUM, Strain/Indicator: TA1535, Metabolic Activation: RAT, LIVER, S-9, AROCLOR 1254 (30%), Method: PREINCUBATION) “inactive; negative”; (Test System: AMES SALMONELLA TYPHIMURIUM, Strain/Indicator: TA1537, Metabolic Activation: HAMSTER, LIVER, S-9, AROCLOR 1254 (10 OR 30%), Method: PREINCUBATION) “inactive; negative”.
Consider `CC(=O)N=c1sn(C(C)=O)c2ccc([N+](=O)[O-])cc12`, for which the mutagenic call (Test System: AMES SALMONELLA TYPHIMURIUM, Strain/Indicator: TA100, Metabolic Activation: S-9, Method: STANDARD PLATE) was “active; positive”.
With `CNC(=O)C[C@@H](N)C(=O)N[C@@H](C(=O)N[C@@H]1C(=O)N2[C@@H]1SC(C)(C)[C@@H]2C(=O)O)c1ccc(O)cc1`, the mutagenic call by setting is: under setting [1], “inactive; negative”; (Test System: AMES SALMONELLA TYPHIMURIUM, Strain/Indicator: TA98, Metabolic Activation: RAT, LIVER, S-9, PHENOBARBITAL AND BENZOFLAVONE, Method: PREINCUBATION) “inactive; negative”; under setting [2], “inactive; negative”; (Test System: AMES SALMONELLA TYPHIMURIUM, Strain/Indicator: TA100, Metabolic Activation: RAT, LIVER, S-9, PHENOBARBITAL AND BENZOFLAVONE, Method: PREINCUBATION) “inactive; negative”; under setting [3], “inactive; negative”; (Test System: AMES SALMONELLA TYPHIMURIUM, Strain/Indicator: TA1535, Metabolic Activation: RAT, LIVER, S-9, PHENOBARBITAL AND 5,6 BENZOFLAVONE, Method: PREINCUBATION) “inactive; negative”. The mutagenic call was “inactive; negative” (Test System: AMES SALMONELLA TYPHIMURIUM, Strain/Indicator: TA1537, Metabolic Activation: NONE, Method: PREINCUBATION); “inactive; negative” (Test System: AMES SALMONELLA TYPHIMURIUM, Strain/Indicator: TA1537, Metabolic Activation: RAT, LIVER, S-9, PHENOBARBITAL AND 5,6 BENZOFLAVONE, Method: PREINCUBATION); “inactive; negative” (Test System: AMES SALMONELLA TYPHIMURIUM, Strain/Indicator: TA1538, Metabolic Activation: NONE, Method: PREINCUBATION); “inactive; negative” (Test System: AMES SALMONELLA TYPHIMURIUM, Strain/Indicator: TA1538, Metabolic Activation: RAT, LIVER, S-9, PHENOBARBITAL AND 5,6 BENZOFLAVONE, Method: PREINCUBATION); “inactive; negative” (Test System: E. COLI, Strain/Indicator: WP2 UVRA, Metabolic Activation: NONE, Method: PREINCUBATION); “inactive; negative” (Test System: E. COLI, Strain/Indicator: WP2 UVRA, Metabolic Activation: RAT, LIVER, S-9, PHENOBARBITAL AND 5,6 BENZOFLAVONE, Method: PREINCUBATION).
As to `Cc1cc(O)c2c(c1)C(=O)C13C(=C2O)C(=O)C2C(O)C1C1C(O)C3C(=O)C3=C(O)c4c(O)cc(C)cc4C(=O)C321` (stereo not drawn), the mutagenic call was “inactive; negative” (Test System: AMES SALMONELLA TYPHIMURIUM, Strain/Indicator: TA98, Metabolic Activation: RAT, LIVER, S-9, AROCLOR 1254, Method: STANDARD PLATE); “inactive; negative” (Test System: AMES SALMONELLA TYPHIMURIUM, Strain/Indicator: TA100, Metabolic Activation: RAT, LIVER, S-9, AROCLOR 1254, Method: STANDARD PLATE); “inactive; negative” (Test System: AMES SALMONELLA TYPHIMURIUM, Strain/Indicator: TA1537, Metabolic Activation: NONE, Method: STANDARD PLATE); “inactive; negative” (Test System: AMES SALMONELLA TYPHIMURIUM, Strain/Indicator: TA1537, Metabolic Activation: RAT, LIVER, S-9, AROCLOR 1254, Method: STANDARD PLATE).
As to `O=[N+]([O-])c1c2c(c3ccc4cccc5ccc1c3c45)CCCC2`, the mutagenic call is, setting by setting: (Test System: AMES SALMONELLA TYPHIMURIUM, Strain/Indicator: TA98, Metabolic Activation: NONE, Method: STANDARD PLATE) “inactive; negative”; under setting [4], “inactive; negative”.
Take `[N-]=[N+]=CC(=O)OC[C@H](N)C(=O)O`: the mutagenic call is “active; positive” under setting [4]; “active; positive” (Test System: E. COLI WP2, Strain/Indicator: WP2, Metabolic Activation: NONE, Method: STANDARD PLATE); “active; positive” (Test System: UDS RAT HEPATOCYTES, Strain/Indicator: BROMODEOXYURIDINE INCORP, Metabolic Activation: NONE, Method: FLOW CYTOMETRIC ANALYSIS); “active; positive” (Test System: UDS RAT HEPATOCYTES, Strain/Indicator: THY INCORP, Metabolic Activation: NONE, Method: AUTORADIOGRAPHY).
